# Test results: ChEMBL document CHEMBL5104164, “Design, synthesis, and biological evaluation of pyrrolopyrimidine derivatives as novel Bruton's tyrosine kinase (BTK) inhibitors” (Eur J Med Chem, 2022)
# Activity calls are given as the source filed them. The calls are words filed in the database; no cut-off is given here.
# Assays:
# TMD8 [1] = assay: Cell cycle arrest in human TMD8 cells assessed as accumulation of cells at G0/G1 phase at 1 nM after 48 hrs by propidium iodide staining based flow cytometric analysis (reference value: 32.9%); assay type: functional
# Raji = assay: Antiproliferative activity against human Raji cells incubated for 72 hrs by CellTiter-Glo assay; assay type: functional, cell-based
# [2] = Oral bioavailability in male BALB/c mouse; assay type: ADME, organism-based; settings: in vivo
# TMD8 [3] = assay: Cell cycle arrest in human TMD8 cells assessed as accumulation of cells at S phase at 100 nM after 48 hrs by propidium iodide staining based flow cytometric analysis (reference value: 49.3%); assay type: functional
# [4] = biological target: Receptor tyrosine-protein kinase erbB-4 (Homo sapiens) (UniProt Q15303); assay: Inhibition of ERBB4 (unknown origin) assessed as residual percent of control at 1 uM measured by DiscoverX kinome scan assay relative to control
# Sequence of Receptor tyrosine-protein kinase erbB-4 (Homo sapiens) (Q15303 whole entry): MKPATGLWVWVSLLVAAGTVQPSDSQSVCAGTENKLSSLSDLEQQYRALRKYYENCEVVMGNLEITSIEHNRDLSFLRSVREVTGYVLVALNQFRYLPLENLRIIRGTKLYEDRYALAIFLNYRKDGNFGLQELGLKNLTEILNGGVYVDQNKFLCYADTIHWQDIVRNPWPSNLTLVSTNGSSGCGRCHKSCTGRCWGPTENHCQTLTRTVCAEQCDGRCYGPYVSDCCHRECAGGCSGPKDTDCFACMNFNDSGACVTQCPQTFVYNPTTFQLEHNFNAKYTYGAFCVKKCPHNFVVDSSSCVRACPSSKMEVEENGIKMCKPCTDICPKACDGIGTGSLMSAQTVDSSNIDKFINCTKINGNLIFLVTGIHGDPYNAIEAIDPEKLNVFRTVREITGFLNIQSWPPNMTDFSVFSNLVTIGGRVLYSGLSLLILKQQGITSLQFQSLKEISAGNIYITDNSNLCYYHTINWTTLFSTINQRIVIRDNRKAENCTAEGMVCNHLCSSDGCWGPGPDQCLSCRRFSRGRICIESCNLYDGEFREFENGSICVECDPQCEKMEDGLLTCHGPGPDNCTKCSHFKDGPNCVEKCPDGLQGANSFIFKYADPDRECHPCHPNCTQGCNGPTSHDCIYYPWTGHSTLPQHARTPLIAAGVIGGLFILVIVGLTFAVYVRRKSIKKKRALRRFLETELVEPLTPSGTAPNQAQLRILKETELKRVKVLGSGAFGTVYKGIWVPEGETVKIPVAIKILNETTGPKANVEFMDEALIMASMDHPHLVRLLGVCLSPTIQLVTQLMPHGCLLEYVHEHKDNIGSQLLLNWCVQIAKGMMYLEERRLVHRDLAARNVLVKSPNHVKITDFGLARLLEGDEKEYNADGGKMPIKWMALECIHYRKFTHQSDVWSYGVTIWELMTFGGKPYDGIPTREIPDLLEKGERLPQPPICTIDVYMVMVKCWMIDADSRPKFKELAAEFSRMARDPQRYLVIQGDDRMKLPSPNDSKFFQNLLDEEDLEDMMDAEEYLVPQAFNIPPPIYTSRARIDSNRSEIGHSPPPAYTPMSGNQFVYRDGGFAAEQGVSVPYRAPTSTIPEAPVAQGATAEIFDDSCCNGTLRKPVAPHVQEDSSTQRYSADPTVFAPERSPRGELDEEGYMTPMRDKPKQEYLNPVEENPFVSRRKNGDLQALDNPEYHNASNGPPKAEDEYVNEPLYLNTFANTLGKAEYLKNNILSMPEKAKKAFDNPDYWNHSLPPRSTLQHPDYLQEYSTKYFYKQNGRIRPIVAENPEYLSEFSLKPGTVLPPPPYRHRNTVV
# TMD8 [5] = assay: In vivo inhibition of BTK in female CB-17 SCID nude mouse xenografted with human TMD8 cells assessed as reduction in p-BTK (Tyr223) expression at 12.5 to 50 mg/kg, po administered twice daily for 21 days; assay type: functional, organism-based; settings: dose 12.5-50 mg/kg, time 21.0 day
# [6] = AUC (0 to infinity) in male BALB/c mouse at 10 mg/kg, po; assay type: ADME, organism-based; set-up: time infinity, dose 10 mg/kg, route po; settings: in vivo
# [7] = Mutagenicity in Salmonella typhimurium TA1537 at 1.5 to 1000 ug per plate by AMES test; assay type: toxicity, Salmonella enterica subsp. enterica serovar Typhimurium; settings: dose 1.5-1000 µg
# [8] = Toxicity in female CB-17 SCID nude mouse xenografted with human TMD8 cells assessed as reduction in white blood cells at 50 mg/kg, po administered twice daily for 21 days; assay type: organism-based; settings: in vivo, 504 h, time 21 day
# DOHH-2 = assay: Antiproliferative activity against human DOHH-2 cells incubated for 72 hrs by CellTiter-Glo assay; assay type: functional, cell-based; settings: DOHH-2, 72 h
# Rec1 = assay: Antiproliferative activity against human REC1 cells incubated for 72 hrs by CellTiter-Glo assay; assay type: functional, cell-based; settings: Rec1, 72 h
# TMD8 [9] = assay: Antiproliferative activity against human TMD8 cells incubated for 72 hrs by CellTiter-Glo assay; settings: TMD8, 72 h
# [10] = Tmax in male BALB/c mouse at 2 mg/kg, iv; assay type: ADME, organism-based; settings: in vivo
# TMD8 [11] = assay: Cell cycle arrest in human TMD8 cells assessed as accumulation of cells at G2 phase at 100 nM after 48 hrs by propidium iodide staining based flow cytometric analysis (reference value: 13.4%); assay type: functional
# [12] = biological target: T1, Tyrosine-protein kinase BTK (Homo sapiens, UniProt Q06187); assay: Inhibition of BTK (unknown origin) measured by ADP-Glo assay
# T1 sequence (Q06187 whole entry): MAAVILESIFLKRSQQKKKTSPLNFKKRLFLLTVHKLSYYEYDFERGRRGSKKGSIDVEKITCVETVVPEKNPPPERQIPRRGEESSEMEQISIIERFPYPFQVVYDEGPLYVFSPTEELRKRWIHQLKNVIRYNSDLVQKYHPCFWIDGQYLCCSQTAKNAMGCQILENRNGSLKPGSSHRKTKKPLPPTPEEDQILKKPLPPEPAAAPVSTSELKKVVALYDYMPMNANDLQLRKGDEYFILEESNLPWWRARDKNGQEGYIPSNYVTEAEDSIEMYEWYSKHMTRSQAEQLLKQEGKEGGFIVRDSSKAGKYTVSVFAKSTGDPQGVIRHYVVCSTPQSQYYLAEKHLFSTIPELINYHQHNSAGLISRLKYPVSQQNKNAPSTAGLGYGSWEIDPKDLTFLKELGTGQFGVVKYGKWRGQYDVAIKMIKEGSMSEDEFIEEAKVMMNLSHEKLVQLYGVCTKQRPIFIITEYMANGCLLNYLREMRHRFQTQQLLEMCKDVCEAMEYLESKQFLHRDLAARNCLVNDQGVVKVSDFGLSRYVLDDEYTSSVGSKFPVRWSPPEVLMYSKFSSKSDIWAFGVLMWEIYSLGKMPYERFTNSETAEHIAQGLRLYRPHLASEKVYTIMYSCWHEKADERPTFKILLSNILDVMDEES
# [13] = Mutagenicity in Salmonella typhimurium TA1537 at 1.5 to 1000 ug per plate in presence of liver microsomes by AMES test; assay type: toxicity, Salmonella enterica subsp. enterica serovar Typhimurium; settings: dose 1.5-1000 µg
# TMD8 [14] = assay: Induction of apoptosis in human TMD8 cells assessed as apoptotic cells 100 nM incubated for 72 hrs by AnnexinV-FITC/propidium iodide staining based flow cytometric analysis; assay type: functional
# [15] = biological target: T1, Tyrosine-protein kinase BTK; assay: Inhibition of BTK in human TMD8 cells assessed as inhibition of BTK autophosphorylation at Tyr223 measured by Western blot analysis; assay type: cell-based
# TMD8 [16] = assay: Cell cycle arrest in human TMD8 cells assessed as accumulation of cells at S phase at 1 nM after 48 hrs by propidium iodide staining based flow cytometric analysis (reference value: 49.3%); assay type: functional
# [17] = Half-life in male BALB/c mouse at 10 mg/kg, po; assay type: ADME, organism-based; settings: in vivo
# [18] = AUC (0 to infinity) in male BALB/c mouse at 2 mg/kg, iv; assay type: ADME, organism-based; set-up: time infinity, dose 2 mg/kg, route iv; settings: in vivo
# [19] = Cmax in male BALB/c mouse at 10 mg/kg, po; assay type: ADME, organism-based; set-up: dose 10 mg/kg, route po; settings: in vivo
# [20] = biological target: Epidermal growth factor receptor (Homo sapiens) (UniProt P00533); assay: Inhibition of EGFR (unknown origin) assessed as residual percent of control at 1 uM measured by DiscoverX kinome scan assay relative to control
# Sequence of Epidermal growth factor receptor (Homo sapiens) (P00533 whole entry): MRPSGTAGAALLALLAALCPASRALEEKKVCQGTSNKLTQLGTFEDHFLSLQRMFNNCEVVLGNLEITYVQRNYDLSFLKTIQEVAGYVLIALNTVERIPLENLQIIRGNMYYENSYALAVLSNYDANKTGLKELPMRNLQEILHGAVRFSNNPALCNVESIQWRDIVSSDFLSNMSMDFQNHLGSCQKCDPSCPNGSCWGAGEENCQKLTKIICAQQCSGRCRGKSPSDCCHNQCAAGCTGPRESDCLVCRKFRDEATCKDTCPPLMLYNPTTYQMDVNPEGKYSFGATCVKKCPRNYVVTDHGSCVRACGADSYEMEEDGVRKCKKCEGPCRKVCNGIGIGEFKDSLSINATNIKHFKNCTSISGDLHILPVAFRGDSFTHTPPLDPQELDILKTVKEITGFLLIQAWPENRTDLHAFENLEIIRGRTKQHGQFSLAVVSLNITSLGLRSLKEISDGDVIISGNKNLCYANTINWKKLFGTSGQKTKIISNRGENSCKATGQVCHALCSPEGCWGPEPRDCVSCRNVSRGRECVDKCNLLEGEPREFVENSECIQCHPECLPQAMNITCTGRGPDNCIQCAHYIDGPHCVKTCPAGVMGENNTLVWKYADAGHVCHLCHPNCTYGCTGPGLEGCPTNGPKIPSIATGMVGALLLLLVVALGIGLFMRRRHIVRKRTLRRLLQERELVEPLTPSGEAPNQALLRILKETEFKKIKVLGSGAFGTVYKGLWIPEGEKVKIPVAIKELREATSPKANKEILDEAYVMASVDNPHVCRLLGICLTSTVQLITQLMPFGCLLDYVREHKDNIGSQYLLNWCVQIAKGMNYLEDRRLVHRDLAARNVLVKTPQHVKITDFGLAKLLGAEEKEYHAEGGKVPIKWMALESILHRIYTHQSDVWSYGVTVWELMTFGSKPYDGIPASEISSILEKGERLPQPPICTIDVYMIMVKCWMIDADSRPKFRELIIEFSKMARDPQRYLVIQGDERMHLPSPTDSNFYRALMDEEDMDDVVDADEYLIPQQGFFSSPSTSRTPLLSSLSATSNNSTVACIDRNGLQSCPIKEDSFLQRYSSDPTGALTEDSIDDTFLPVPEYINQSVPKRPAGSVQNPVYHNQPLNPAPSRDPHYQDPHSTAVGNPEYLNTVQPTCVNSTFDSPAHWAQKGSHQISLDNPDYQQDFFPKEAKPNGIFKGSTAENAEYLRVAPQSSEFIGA
# TMD8 [21] = assay: Cell cycle arrest in human TMD8 cells assessed as accumulation of cells at G0/G1 phase at 100 nM after 48 hrs by propidium iodide staining based flow cytometric analysis (reference value: 32.9%); assay type: functional
# SUD4 = assay: Antiproliferative activity against human SU-DHL-4 cells incubated for 72 hrs by CellTiter-Glo assay; assay type: functional, cell-based; settings: SU-DHL-4, 72 h
# [22] = biological target: T2, Tyrosine-protein kinase JAK3 (Homo sapiens) (UniProt P52333); assay: Inhibition of Jak3 (unknown origin) assessed as residual percent of control at 1 uM measured by DiscoverX kinome scan assay relative to control
# T2 sequence (whole entry): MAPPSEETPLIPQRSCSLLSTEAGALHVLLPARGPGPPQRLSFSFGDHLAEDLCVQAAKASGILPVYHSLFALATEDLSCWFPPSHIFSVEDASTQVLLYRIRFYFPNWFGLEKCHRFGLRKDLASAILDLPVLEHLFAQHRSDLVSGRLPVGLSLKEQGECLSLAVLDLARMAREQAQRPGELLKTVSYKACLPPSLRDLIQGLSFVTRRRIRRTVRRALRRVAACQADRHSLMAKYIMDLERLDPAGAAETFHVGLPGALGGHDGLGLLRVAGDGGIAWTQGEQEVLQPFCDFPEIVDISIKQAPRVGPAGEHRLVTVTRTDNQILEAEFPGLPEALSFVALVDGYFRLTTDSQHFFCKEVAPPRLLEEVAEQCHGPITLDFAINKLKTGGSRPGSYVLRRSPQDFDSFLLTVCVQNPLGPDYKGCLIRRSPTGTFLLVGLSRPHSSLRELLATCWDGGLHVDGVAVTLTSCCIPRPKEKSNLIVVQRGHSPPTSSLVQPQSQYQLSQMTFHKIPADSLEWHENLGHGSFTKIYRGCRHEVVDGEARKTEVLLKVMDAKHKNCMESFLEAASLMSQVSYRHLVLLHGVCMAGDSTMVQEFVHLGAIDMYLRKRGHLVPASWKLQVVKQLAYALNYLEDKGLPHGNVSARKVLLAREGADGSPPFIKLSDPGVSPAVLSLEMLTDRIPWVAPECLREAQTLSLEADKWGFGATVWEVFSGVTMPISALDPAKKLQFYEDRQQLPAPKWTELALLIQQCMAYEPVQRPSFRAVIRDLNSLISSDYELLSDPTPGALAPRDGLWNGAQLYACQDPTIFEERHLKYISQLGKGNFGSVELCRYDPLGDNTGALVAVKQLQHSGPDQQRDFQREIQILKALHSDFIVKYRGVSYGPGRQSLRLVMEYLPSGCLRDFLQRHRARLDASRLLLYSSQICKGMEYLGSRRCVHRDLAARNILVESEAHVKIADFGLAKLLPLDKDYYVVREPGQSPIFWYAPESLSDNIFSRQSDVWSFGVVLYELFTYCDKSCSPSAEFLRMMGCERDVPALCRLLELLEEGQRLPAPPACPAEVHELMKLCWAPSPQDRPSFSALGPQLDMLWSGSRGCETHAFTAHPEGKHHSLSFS
# [23] = Mutagenicity in Salmonella typhimurium TA98 at 1.5 to 1000 ug per plate by AMES test; assay type: toxicity, Salmonella enterica subsp. enterica serovar Typhimurium; settings: dose 1.5-1000 µg
# [24] = Clearance in male BALB/c mouse at 2 mg/kg, iv; assay type: ADME, organism-based; settings: in vivo
smiles,measurement,setting,value
C=CC(=O)N1CC=C(c2c[nH]c3ncnc(-c4ccc(CNC(=O)c5ccccc5)c(F)c4)c23)CC1,Activity,TMD8 [1],33%
same,IC50,Raji,> 10000 nM
same,bioavailability,[2],41%
same,Activity,TMD8 [3],24.6%
same,Activity,[4],0.55%
same,Activity,TMD8 [5],Active
same,AUC(0-inf),[6],1470 ng·h/mL
same,Activity,[7],Non-Toxic
same,Activity,[8],Toxic
same,IC50,DOHH-2,5260 nM
same,IC50,Rec1,1.7 nM
same,IC50,TMD8 [9],2.6 nM
same,Tmax,[10],1.8 min
same,Activity,TMD8 [11],6.4%
same,IC50,[12],0.7 nM
same,Activity,[13],Non-Toxic
same,Activity,TMD8 [14],25.2%
same,IC50,[15],1.49 nM
same,Activity,TMD8 [16],49.3%
same,half-life,[17],35.4 min
same,AUC(0-inf),[18],718 ng·h/mL
same,Cmax,[19],1440 ng/mL
same,Activity,[20],44%
same,Activity,TMD8 [21],63%
same,IC50,SUD4,> 10000 nM
same,Activity,[22],3.8%
same,Activity,[23],Non-Toxic
same,clearance,[24],47.8 mL/min/kg
